Test results taken from US20230220387A1, “D-SERINE TRANSPORT MODIFIER AND SCREENING METHOD THEREOF, AND SCREENING METHOD OF D-SERINE TRANSPORTER PROTEIN” (Kagami Inc., priority 2019, published 2023).
“Also recorded” adds a separate entry of the source. One block for each compound: values may come before it.

Tests used:
Format in all cases: cell-based
Flp-In TREx293 cells = experiment: Cell proliferation by XTT assay in Flp-In TREx293 cells treated with L- or D-serine
Protocol: (§1) 2-4. Cell survival measurement A D-serine toxicity test was carried out using HEK293 in a transient expression system. The cells were seeded in a 96-well plate at 10,000 cells/well, and transfected with […] DNA (pCMV14 as Mock, pCMV14-hSLC5A8-3×FLAG as SMCT1 and pCMV14-hSLC5A12-3×FLAG as SMCT2). At 24 hours after transfection they were treated with D-serine and further incubated for 2 days. The proliferated cell count was determined by XTT measurement. The XTT solution comprised 1 mg/ml of XTT (2,3-Bis-(2-Methoxy-4-nitro-5-sulfophenyl)-2H-tetrazolium-5-carboxanilide, disodium salt: Biotium, CA, USA) mixed with 7.5 μg/ml of Phenazine methosulfate (Nacalai Tesque, Inc.), and was added to the cultured cells. The incubation reaction was carried out for 4 hours at 37° C., 5% CO2. The absorbance at 450 nm was then measured with a microplate reader.
(§2) A toxicity test for stable cells was carried out using an FlpIn293TR-stable cell line. The cells were seeded in a poly-D-lysine-coated 96-well plate at 6.5×10^3 cells/well (Mock) and 8×10^3 cells/well (hSLC5A8 and hSLC5A12 cells), while in antibiotic-free DMEM+dialyzed FBS medium. After 24 hours, they were treated with L- or D-serine at different concentrations and 1 mg/L of doxycycline hyclate was added to induce recombination gene expression. For the ASCT2 knockdown experiment, the seeded cells were transfected after 12 hours with ASCT2 siRNA at 2 pmol/well, using Lipofectamine 3000. The effect of ibuprofen was analyzed by simultaneous addition with D-serine treatment. The cells were cultured for 2 days to 80% confluence. The proliferated cell count was determined by XTT measurement in the same manner as described above.

[1] = tested on: HEK293 cells transiently transfected with pCMV14-hSLC5A8-3×FLAG (SMCT1); experiment: D-serine toxicity test in transient expression system, SMCT1; conditions: SMCT1-expressing HEK293 cells; 2 days; XTT
Protocol: as §1

[2] = tested on: HEK293 cells transiently transfected with pCMV14-hSLC5A12-3×FLAG (SMCT2); experiment: D-serine toxicity test in transient expression system, SMCT2; conditions: SMCT2-expressing HEK293 cells; 2 days; XTT
Protocol: as §1

[3] = tested on: FlpIn293TR-hSLC5A12-3×FLAG (SMCT2)-stable cell line; experiment: Toxicity test (XTT) in SMCT2-stable cell line; conditions: FlpIn293TR-Mock or SMCT2-stable cell line; SMCT2 cells compared to Mock cells
Protocol: as §2

[4] = tested on: FlpIn293TR-hSLC5A8-3×FLAG (SMCT1)-stable cell line; experiment: Toxicity test (XTT) in SMCT1-stable cell line; conditions: SMCT1 cells compared to Mock cells
Protocol: as §2

[5] = tested on: HEK293 cells transiently transfected with a cDNA clone of a transporter candidate; experiment: Cytotoxicity test (XTT) for screening of D-serine transporter candidates
Protocol: as §1
A total of 19 D-serine transporter candidates were selected from the proteome results. A cytotoxicity test for screening of D-serine transporter was developed based on the idea that intracellular D-serine accumulated via D-serine transporter function induces cytotoxicity. HEK293 cells were transiently transfected with a cDNA clone and the cells were treated with 15 mM or 25 mM D-serine to observe the initial stage and stationary stage of the toxicity effect. […]

[6] = tested on: Flp-In TREx 293 cell line; experiment: D-[3H]serine uptake in Flp-In TREx 293 cell line in the presence of inhibitors; conditions: 10 minutes
Protocol: (§3) The cell lines HEK293 and Flp-In TREx 293 were cultured at 37° C. in a 5% CO2 environment, using Dulbecco's Modified Eagle Medium (DMEM) containing 10% fetal bovine serum (FBS), 100 units/ml Penicillin G and 100 μg/ml streptomycin (P/S). The cells were seeded in a Poly-D-lysine coated 24-well plate at 6×10^4 cells/well. After culturing for 3 days in DMEM Medium containing 10% FBS and P/S, the cell were used for transport activity measurement. Before transport activity measurement, the cells were washed with transport activity measurement buffer (PBS+1 g/L D-glucose) prewarmed to 37° C. and incubated for 10 minutes at 37° C. in 500 μL of buffer. The transport activity measurement was initiated by addition of D-[^3H]serine-containing transport activity buffer at the indicated concentration. The reaction product produced after addition was incubated at 37° C. for the indicated time. The reaction was suspended by removing the D-[^3H]serine-containing transport activity buffer, and the product was washed 3 times with thoroughly cooled transport activity buffer. The cells were dissolved with 500 μL of 0.1 N NaOH and incubated for at least one hour. Protein concentration of the cell lysate was measured by BCA protein assay. The lysate was mixed with 1 mL of Emulsifier Safe (PerkinElmer, MA, USA) and the radioactivity of the lysate was measured with a β-scintillation counter (LSC-8000, Hitachi). In transport activity measurement for Na^+, HBSS (+Na^+: 125 mM NaCl, −Na^+: choline chloride, 4.8 mM KCl, 1.2 mM MgSO4, 1.2 mM KH2PO4, 1.3 mM CaCl2), 5.6 mM D-glucose and 25 mM HEPES was used instead of PBS. For the inhibition experiment, a non-radioactive labeled compound was included as the uptake substrate as shown in the drawing.

HEK293 cells = experiment: [3H]D-serine transport in HEK293 cells; conditions: endogenous ASCT2
Protocol: as §3

ASCT2 = target: T1, ASCT2 (Homo sapiens, UniProt Q15758); experiment: [3H]D-serine transport in HEK293 cells transfected with ASCT2
T1 construct: expressed in transfected cells; host or cells: HEK293 cells
T1 sequence (Q15758 1-541): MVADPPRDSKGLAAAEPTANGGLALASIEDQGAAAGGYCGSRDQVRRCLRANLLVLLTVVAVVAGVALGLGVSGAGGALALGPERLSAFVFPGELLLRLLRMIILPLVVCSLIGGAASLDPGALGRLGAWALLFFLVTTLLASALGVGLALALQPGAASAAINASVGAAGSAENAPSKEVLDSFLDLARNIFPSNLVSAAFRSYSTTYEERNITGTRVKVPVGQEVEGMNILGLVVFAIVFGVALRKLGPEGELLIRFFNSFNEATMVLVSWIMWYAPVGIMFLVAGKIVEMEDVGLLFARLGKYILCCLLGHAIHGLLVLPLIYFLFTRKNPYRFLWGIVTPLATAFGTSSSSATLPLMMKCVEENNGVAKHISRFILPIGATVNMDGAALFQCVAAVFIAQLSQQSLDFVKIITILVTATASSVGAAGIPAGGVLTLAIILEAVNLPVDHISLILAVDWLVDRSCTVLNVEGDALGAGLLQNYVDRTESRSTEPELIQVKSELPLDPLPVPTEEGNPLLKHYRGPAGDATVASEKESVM
Protocol: The cell lines HEK293 and Flp-In TREx 293 were cultured at 37° C. in a 5% CO2 environment, using Dulbecco's Modified Eagle Medium (DMEM) containing 10% fetal bovine serum (FBS), 100 units/ml Penicillin G and 100 μg/ml streptomycin (P/S). The cells were seeded in a Poly-D-lysine coated 24-well plate at 6×10^4 cells/well. After culturing for 3 days in DMEM Medium containing 10% FBS and P/S, the cell were used for transport activity measurement. Before transport activity measurement, the cells were washed with transport activity measurement buffer (PBS+1 g/L D-glucose) prewarmed to 37° C. and incubated for 10 minutes at 37° C. in 500 μL of buffer. The transport activity measurement was initiated by addition of D-[^3H]serine-containing transport activity buffer at the indicated concentration. The reaction product produced after addition was incubated at 37° C. for the indicated time. The reaction was suspended by removing the D-[^3H]serine-containing transport activity buffer, and the product was washed 3 times with thoroughly cooled transport activity buffer. […] Protein concentration of the cell lysate was measured by BCA protein assay. The lysate was mixed with 1 mL of Emulsifier Safe (PerkinElmer, MA, USA) and the radioactivity of the lysate was measured with a β-scintillation counter (LSC-8000, Hitachi). […]

[7] = tested on: ASCT2-knockout HAP1 cells; experiment: D-serine transport in ASCT2-knockout HAP1 cells
From the text: In order to establish positive candidates for D-serine transporter it was attempted to elucidate the transport function in a cell model. ASCT2 is expressed in several cell lines, constituting a strong background of D-serine accumulation and interfering with identification of novel D-serine transporters. HAP1 cells (Horizon Discovery), which are an essentially haploid cell line, can be advantageously used as a cell model for this purpose. Genetic modification is facilitated since almost all of the chromosomes are single copies, while their transcriptome analysis methods have been established and several gene knockout cell lines can be used. ASCT2-knockout HAP1 cells were therefore obtained and used as a model for D-serine screening.
The ASCT2-knockout HAP1 cells had weaker D-serine uptake compared to wild type cells (FIG. 17(A)). However, D-serine transport background was still observed in the ASCT2-knockout HAP1 cells. Proteome analysis of the HAP1 cells (Table 2) was used to detect expression of both SNAT1 and SNAT2. SNAT1 and SNAT2 belong to the “system A family” of sodium-dependent small amino acid transporters. We considered that SNAT may contribute to D-serine transport in HAP1 cells. In order to verify this hypothesis, the inhibiting effect of the system A inhibitor MeAIB on D-serine transport was examined.

SMILES: N[C@H](CO)C(=O)O [D-serine]
D-serine toxicity with respect to cell proliferation (Flp-In TREx293 cells; ASCT2 knockdown cells (ASCT2-siRNA) compared with control cells, 2 days, XTT): alleviated | EC50 (Flp-In TREx293 cells; Flp-In-T-REx-293, 48 h, 2 days treatment, XTT assay, read-out: EC50 for cell proliferation reduction): 18.7 mM | cytotoxicity compared to the Mock cells [1]: higher cytotoxicity | cytotoxicity compared to the Mock cells [2]: higher cytotoxicity | cell proliferation effect by serine treatment [3]: decrease in cell proliferation; also recorded: lowered proliferation more than in the Mock cells | cell proliferation effect by D-serine treatment [4]: lowered proliferation more than in the Mock cells | D-serine toxicity effect compared with Mock cells ([5]; 15 mM D-serine, cells transfected with SMCT2, CAT1, TAT1 and SNAT2, 2 days): increased toxicity | D-serine toxicity effect compared with Mock cells ([5]; 25 mM D-serine, cells transfected with GLUT5, SMCT1, SMCT2, CAT1, THTR2 and SNAT2, 2 days): significant toxicity

[3H]D-serine transport (ASCT2): notably inhibited
SMILES: N[C@@H](CO)C(=O)O [L-serine]
cell proliferation (Flp-In TREx293 cells; Flp-In TREx 293 control cells, 2 days, XTT): no effect | Uptake of D-[3H]serine [6]: inhibited | cell proliferation effect by serine treatment [3]: did not affect cell proliferation | [3H]D-serine transport (HEK293 cells): inhibited

SMILES: CNC(C)(C)C(=O)O [MeAIB, α-Methylaminoisobutyric acid]
Uptake of D-[3H]serine [6]: not inhibited | D-serine transport [7]: notably reduced | [3H]D-serine transport (HEK293 cells): not inhibited
